Measured values reported in patent US7795505B2, “Herbicide-resistance gene and utilization thereof” (Hokko Chemical Industry Co., Ltd., priority 2004, dated 2010).

Tests used:
[1] = test system: enzyme capable of acetylating PPT derived from actinomycete AB2253 strain (pUC19-AB); assay: Acetylation reaction with crude enzyme solution from E. coli transformed with pUC19-AB; type: biochemical; settings: substrate specificity, vector pUC19-AB (control)
Procedure: (§1) Escherichia coli transformed with pUC18-B2 having the herbicide-resistance gene of the present invention was inoculated into a liquid medium containing 50 ml of LB medium and 50 mg/L ampicillin, and cultured at 37° C. for 1 hour, and 50 μl of a 1 M thiogalactopyranoside solution was added to the culture solution, followed by culture at 37° C. for 3 hours. After completion of the culture, the culture solution was centrifuged at 5,000 rpm for 15 minutes to collect bacterial cells, and the cells were washed once with physiological saline. Then, the washed bacterial cells were suspended in 2 ml of a 20 mM Trisbuffer (pH 8.0) solution and disrupted by ultrasonic waves at 4° C. The solution was centrifuged at 15,000 rpm for 15 minutes to collect the supernatant. The supernatant was diluted 10-fold with 20 mM Tris buffer (pH 8.0) to prepare a crude enzyme solution. Then, 2 μl of the crude solution was added to 98 μl of a reaction solution, and the mixture was allowed to react at 28° C. for 1 hour, followed by measurement of the absorbance at 412 nm to measure the acetylation reaction. […]
(§2) The optimum pH and substrate specificity (Km value) to PPT and a structural homologue thereof, methionine sulfone (MS) were measured, and the results are shown in Table 2.

[2] = test system: enzyme capable of acetylating PPT of Streptomyces sp. AB3534 strain (pUC18-B2); assay: Acetylation reaction with crude enzyme solution from E. coli transformed with pUC18-B2 (absorbance at 412 nm); type: biochemical; settings: substrate specificity, vector pUC18-B2 (present invention)
Procedure: as §1, §2

[3] = test system: Escherichia coli transformed with pUC18-B1; assay: Growth on M9 agar medium containing bialaphos; type: cell-based; settings: 1 mM IPTG, 10 mg/L bialaphos
Procedure: The about 1.2-kb EcoRI-BglII fragment that had been confirmed to have a bialaphos-resistance gene was ligated to the EcoRI-BamHI site of a commercially available plasmid vector pUC18, and the resultant plasmid was introduced into Escherichia coli, to thereby yield a transformed Escherichia coli strain having a resistance to bialaphos. A deletion plasmid was prepared by using the SmaI site in the about 1.2-kb EcoRI, BglII fragment and was used to transform Escherichia coli, and as a result, the herbicide-resistance gene of the present invention was confirmed to be present on an about 0.6-kb EcoRI-SmaI fragment. 2 μg of the hybrid plasmid pBRB1 was cleaved with restriction enzymes EcoRI and BglII (20 units each) at 37° C. for 2 hours and subjected to agarose electrophoresis, and only a 1.2 kb-fragment was cut and purified using GeneClean. On the other hand, 2 μg of the plasmid pUC18 was cleaved with EcoRI and BamHI (20 units each) at 37° C. for 2 hours, and the fragments were purified using GeneClean (manufactured by Bio101). […]
That is, the plasmid pUC18-B1 was cleaved with restriction enzymes EcoRI and SmaI (20 units each) at 37° C. for 2 hours and subjected to agarose electrophoresis, and only a 0.6 kb-fragment was cut and purified using GeneClean. […] The nucleotide sequence was determined by custom DNA sequencing service (Hokkaido System Science Co., Ltd.).

[4] = test system: Escherichia coli transformed with pUC18-B2; assay: Growth on M9 agar medium containing bialaphos; type: cell-based; settings: 1 mM IPTG, 10 mg/L bialaphos
Procedure: That is, the plasmid pUC18-B1 was cleaved with restriction enzymes EcoRI and SmaI (20 units each) at 37° C. for 2 hours and subjected to agarose electrophoresis, and only a 0.6 kb-fragment was cut and purified using GeneClean. On the other hand, 2 μg of the plasmid pUC18 was cleaved with EcoRI and SmaI (20 units each) at 37° C. for 2 hours, and the fragments were purified using GeneClean (manufactured by Bio101). The DNA fragments were allowed to react using Takara Ligation kit at 16° C. for 3 hours, to thereby yield a solution of the plasmid pUC18-B2 obtained by integrating the about 0.6-kb EcoRI, SmaI-cleaved DNA fragment derived from pBRB1 into the EcoRI, SmaI-cleaved DNA fragment of the plasmid pUC18. […] The nucleotide sequence was determined by custom DNA sequencing service (Hokkaido System Science Co., Ltd.).

[5] = test system: Streptomyces lividans introduced with hybrid plasmid pBRB1; assay: Bialaphos resistance of transformants; type: cell-based; settings: all transformants with pBRB1
Procedure: The hybrid plasmid mixture thus obtained was used to transform a protoplast of Streptomyces lividans. The protoplast was regenerated, and then transformed strains having a bialaphos resistance were selected on a selective medium containing 10 mg/L bialaphos. The Streptomyces lividans used above as a host is a bacterial strain obtained by removing a plasmid pIJ703 from Streptomyces lividans 3131 by protoplastization and regeneration. Streptomyces lividans 3131 was obtained from Department of Antibiotics, National Institute of Health in 1985 (“The Journal of Antibiotics” 1985, vol. 38, pp. 390-400). […]
From the resultant two bialaphos-resistant strains, plasmids were extracted in accordance with a known method (“Current Topics in Microbiology and Immunology” 1982, vol. 96, pp. 69). […] These plasmids derived from the two strains were separately cleaved with a restriction enzyme BglII and analyzed by agarose electrophoresis. In both cases, the electrophoresis detected not only the DNA fragment of pIJ703 used in the vector but also an about 5.7-kb DNA fragment. […]

[6] = test system: CP(=O)(O)CC[C@H](N)C(=O)O; assay: cells, lysate or membranes named; settings: other: substrate specificity; crude enzyme, vector pUC19-SH (control); pH 8.0
Procedure: as §1, §2

Compound | Km [1] [µM] | Km [2] [µM] | other results
CP(=O)(O)CC[C@H](N)C(=O)O (racemic) [PPT, phosphinothricin] | 14300 | 2460 | –
CS(=O)(=O)CC[C@H](N)C(=O)O [MS, methionine sulfone] | 2200 | 13000 | –
C[C@H](NC(=O)[C@H](C)NC(=O)[C@@H](N)CCP(C)(=O)O)C(=O)O [bialaphos] | – | – | growth on medium containing bialaphos [3]: found to grow; growth on medium containing bialaphos [4]: found to grow; resistance of transformants to bialaphos [5]: all the resultant transformants were found to have a resistance to bialaphos
enzyme capable of acetylating PPT derived from Streptomyces hygroscopicus (pUC19-SH) (Streptomyces hygroscopicus) | – | – | Km [6]: 90 µM
